From patent publication US9944602B2, “Piperidinone herbicides” (E. I. DU PONT DE NEMOURS AND COMPANY, priority 2014, dated 2018)
One block for each compound: values may come before it.

How the values were obtained:
[1] = tested on: barnyardgrass (Echinochloa crus-galli); assay: Test A preemergence barnyardgrass; assay type: in vivo; details: 0 to 100 scale; for Plant response rating, Barnyardgrass: 500 g ai/ha, 0 is no effect, 100 is complete control; for pest or weed control at 125 g/ha: Echinochloa crus-galli, pre-emergence, 240 h, 125 g ai/ha, 0 no effect, 100 complete control, read-out: Barnyardgrass plant response rating
Procedure, shortened: (§1)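 Scores reflect visual comparison with untreated controls after ~10 d in the greenhouse (0 none, 100 complete control). Treatment was a surfactant-containing non-phytotoxic solvent formulation, sprayed onto soil after seeding or onto seedlings at one to two leaves, 2–10 cm tall.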

[2] = tested on: foxtail, giant (giant foxtail, Setaria faberii); assay: Test A preemergence foxtail, giant; assay type: in vivo; details: Setaria faberi, pre-emergence, 240 h, 0 to 100 scale, 0 no effect, 100 complete control, read-out: Foxtail, Giant plant response rating; for pest or weed control at 125 g/ha: 125 g ai/ha; for pest or weed control at 500 g/ha: 500 g ai/ha
Procedure, shortened: as §1

[3] = tested on: pigweed (Amaranthus retroflexus); assay: Test A preemergence pigweed; assay type: in vivo; details: Amaranthus retroflexus, pre-emergence, 240 h, 0 to 100 scale, 0 no effect, 100 complete control, read-out: Pigweed plant response rating; for pest or weed control at 125 g/ha: 125 g ai/ha; for pest or weed control at 500 g/ha: 500 g ai/ha
Procedure, shortened: as §1

[4] = tested on: barnyardgrass (Echinochloa crus-galli); assay: Test A postemergence barnyardgrass; assay type: in vivo; details: Echinochloa crus-galli, post-emergence, 240 h, 0 to 100 scale, 0 is no effect, 100 is complete control, read-out: Plant response rating, Barnyardgrass; for pest or weed control at 125 g/ha: 125 g ai/ha; for pest or weed control at 500 g/ha: 500 g ai/ha
Procedure, shortened: as §1

[5] = tested on: foxtail, giant (giant foxtail, Setaria faberii); assay: Test A postemergence foxtail, giant; assay type: in vivo; details: Setaria faberi, post-emergence, 240 h, 0 to 100 scale, 0 is no effect, 100 is complete control, read-out: Plant response rating, Foxtail, Giant; for pest or weed control at 125 g/ha: 125 g ai/ha; for pest or weed control at 500 g/ha: 500 g ai/ha
Procedure, shortened: as §1

[6] = tested on: pigweed (Amaranthus retroflexus); assay: Test A postemergence pigweed; assay type: in vivo; details: Amaranthus retroflexus, post-emergence, 240 h, 0 to 100 scale, 0 is no effect, 100 is complete control, read-out: Plant response rating, Pigweed; for pest or weed control at 125 g/ha: 125 g ai/ha; for pest or weed control at 500 g/ha: 500 g ai/ha
Procedure, shortened: as §1

[7] = tested on: wheat (Triticum aestivum); assay: Test A postemergence wheat; assay type: in vivo; details: Triticum aestivum, post-emergence, 240 h, 0 to 100 scale, 0 is no effect, 100 is complete control, read-out: Plant response rating, Wheat; for plant injury at 125 g/ha: 125 g ai/ha; for plant injury at 500 g/ha: 500 g ai/ha
Procedure, shortened: as §1

corn (Zea mays) = assay: Test A postemergence corn; assay type: in vivo; details: Zea mays, post-emergence, 240 h, 0 to 100 scale, 0 is no effect, 100 is complete control; for Corn plant response rating (crop injury, 0 = no effect, 100 = complete kill) at 125 g/ha: 125 g ai/ha; for Corn plant response rating (crop injury, 0 = no effect, 100 = complete kill) at 500 g/ha: 500 g ai/ha
Procedure, shortened: as §1

rice (Oryza sativa) [8] = assay: Test B flooded paddy test rice; assay type: in vivo; details: Oryza sativa, Table B, Flood, 250 g ai/ha, scale 0 to 100, read-out: Plant response rating
Procedure, shortened: (§2)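 2-leaf plants; flood 3 cm over soil; cpd into paddy water; water depth kept; greenhouse 13–15 d; visual rating vs controls.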

[9] = tested on: sedge, umbrella (small-flower umbrella sedge, Cyperus difformis); assay: Test B flooded paddy test sedge, umbrella; assay type: in vivo; details: Cyperus difformis, Table B, Flood, 250 g ai/ha, scale 0 to 100, read-out: Plant response rating
Procedure, shortened: as §2

[10] = tested on: ducksalad (Heteranthera limosa); assay: Test B flooded paddy test ducksalad; assay type: in vivo; details: Heteranthera limosa, Table B, Flood, 250 g ai/ha, scale 0 to 100, read-out: Plant response rating
Procedure, shortened: as §2

[11] = tested on: barnyardgrass (Echinochloa crus-galli); assay: Test B flooded paddy test barnyardgrass; assay type: in vivo; details: Echinochloa crus-galli, Table B, Flood, 250 g ai/ha, scale 0 to 100, read-out: Plant response rating
Procedure, shortened: as §2

rice (Oryza sativa) [12] = assay: Test C flooded paddy test rice; assay type: in vivo; details: Table C, Flood, scale 0 to 100
Procedure, shortened: (§3)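 Visual 0–100 injury rating versus controls (0 = no effect, 100 = complete control) at 13 to 15 d. 2-leaf-stage plants; pots flooded 3 cm over soil surface, test compound added to paddy water; greenhouse.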

[13] = tested on: sedge, umbrella (small-flower umbrella sedge, Cyperus difformis); assay: Test C flooded paddy test sedge, umbrella; assay type: in vivo; details: Table C, Flood, scale 0 to 100
Procedure, shortened: as §3

[14] = tested on: ducksalad (Heteranthera limosa); assay: Test C flooded paddy test ducksalad; assay type: in vivo; details: Table C, Flood, scale 0 to 100
Procedure, shortened: as §3

[15] = tested on: barnyardgrass (Echinochloa crus-galli); assay: Test C flooded paddy test barnyardgrass; assay type: in vivo; details: Table C, Flood, scale 0 to 100
Procedure, shortened: as §3

kochia (Kochia scoparia) [16] = assay: Test A preemergence kochia; assay type: in vivo; details: Bassia scoparia, pre-emergence, 240 h, 0 to 100 scale, 0 no effect, 100 complete control, read-out: Kochia plant response rating
Procedure, shortened: as §1

[17] = tested on: ragweed (common ragweed, Ambrosia elatior); assay: Test A preemergence ragweed; assay type: in vivo; details: Ambrosia artemisiifolia, pre-emergence, 240 h, 0 to 100 scale, 0 no effect, 100 complete control, read-out: Ragweed plant response rating
Procedure, shortened: as §1

[18] = tested on: ryegrass, Italian (Italian ryegrass, Lolium multiflorum); assay: Test A preemergence ryegrass, Italian; assay type: in vivo; details: Lolium multiflorum, pre-emergence, 240 h, 0 to 100 scale, 0 no effect, 100 complete control, read-out: Ryegrass, Italian plant response rating
Procedure, shortened: as §1

kochia (Kochia scoparia) [19] = assay: Test A postemergence kochia; assay type: in vivo; details: Bassia scoparia, post-emergence, 240 h, 0 to 100 scale, 0 is no effect, 100 is complete control, read-out: Plant response rating, Kochia
Procedure, shortened: as §1

[20] = tested on: ragweed (common ragweed, Ambrosia elatior); assay: Test A postemergence ragweed; assay type: in vivo; details: Ambrosia artemisiifolia, post-emergence, 240 h, 0 to 100 scale, 0 is no effect, 100 is complete control, read-out: Plant response rating, Ragweed
Procedure, shortened: as §1

[21] = tested on: ryegrass, Italian (Italian ryegrass, Lolium multiflorum); assay: Test A postemergence ryegrass, Italian; assay type: in vivo; details: Lolium multiflorum, post-emergence, 240 h, 0 to 100 scale, 0 is no effect, 100 is complete control, read-out: Plant response rating, Ryegrass, Italian
Procedure, shortened: as §1

[22] = tested on: blackgrass (Alopecurus myosuroides); assay: Test A postemergence blackgrass; assay type: in vivo; details: Alopecurus myosuroides, post-emergence, 240 h, 0 to 100 scale, 0 is no effect, 100 is complete control, read-out: Plant response rating, Blackgrass
Procedure, shortened: as §1

[23] = tested on: galium (catchweed bedstraw, Galium aparine); assay: Test A postemergence galium; assay type: in vivo; details: Galium, post-emergence, 240 h, 0 to 100 scale, 0 is no effect, 100 is complete control, read-out: Plant response rating, Galium
Procedure, shortened: as §1

melting point: 292 to 295 °C
SMILES: O=C1NCCC(c2cccc(C(F)(F)F)c2)C1C(=O)Nc1ccccc1C(F)(F)F (centres unmarked) [Compound 10, 2-oxo-N-[2-(trifluoromethyl)phenyl)-4-[3-(trifluoromethyl)phenyl]-3-piperidinecarboxamide]
Plant response rating, Barnyardgrass [1]: 90
pest or weed control at 125 g/ha [1]: 60%
pest or weed control at 125 g/ha [2]: 90%
pest or weed control at 500 g/ha [2]: 90%
pest or weed control at 125 g/ha [3]: 0%
pest or weed control at 500 g/ha [3]: 0%
pest or weed control at 125 g/ha [4]: 80%
pest or weed control at 500 g/ha [4]: 90%
pest or weed control at 125 g/ha [5]: 40%
pest or weed control at 500 g/ha [5]: 70%
pest or weed control at 125 g/ha [6]: 0%
pest or weed control at 500 g/ha [6]: 0%
plant injury at 125 g/ha [7]: 0%
plant injury at 500 g/ha [7]: 0%
Corn plant response rating (crop injury, 0 = no effect, 100 = complete kill) at 125 g/ha (corn (Zea mays)): 0%
Corn plant response rating (crop injury, 0 = no effect, 100 = complete kill) at 500 g/ha (corn (Zea mays)): 0%
plant injury at 250 g/ha (rice (Oryza sativa) [8]): 10%
pest or weed control at 250 g/ha [9]: 0%
pest or weed control at 250 g/ha [10]: 40%
pest or weed control at 250 g/ha [11]: 0%
Plant response rating (rice (Oryza sativa) [12]; 1000 g ai/ha): 10
Plant response rating ([13]; 1000 g ai/ha): 0
Plant response rating ([14]; 1000 g ai/ha): 85
Plant response rating ([15]; 1000 g ai/ha): 65

melting point: 180 to 182 °C
SMILES: O=C1NCCC(c2ccc(C(F)(F)F)cc2)C1C(=O)Nc1cccc(F)c1F (centres unmarked) [Compound 11, N-(2,3-difluorophenyl)-2-oxo-4-[4-(trifluoromethyl)phenyl]-3-piperidinecarboxamide]
Plant response rating, Barnyardgrass [1]: 90
pest or weed control at 125 g/ha [1]: 60%
pest or weed control at 125 g/ha (kochia (Kochia scoparia) [16]; 125 g ai/ha): 0%
pest or weed control at 500 g/ha (kochia (Kochia scoparia) [16]; 500 g ai/ha): 60%
pest or weed control at 125 g/ha ([17]; 125 g ai/ha): 40%
pest or weed control at 500 g/ha ([17]; 500 g ai/ha): 80%
pest or weed control at 125 g/ha ([18]; 125 g ai/ha): 0%
pest or weed control at 500 g/ha ([18]; 500 g ai/ha): 0%
pest or weed control at 125 g/ha [2]: 70%
pest or weed control at 500 g/ha [2]: 90%
pest or weed control at 125 g/ha [3]: 0%
pest or weed control at 500 g/ha [3]: 40%
pest or weed control at 125 g/ha [4]: 70%
pest or weed control at 500 g/ha [4]: 90%
pest or weed control at 125 g/ha (kochia (Kochia scoparia) [19]; 125 g ai/ha): 20%
pest or weed control at 500 g/ha (kochia (Kochia scoparia) [19]; 500 g ai/ha): 50%
pest or weed control at 125 g/ha ([20]; 125 g ai/ha): 0%
pest or weed control at 500 g/ha ([20]; 500 g ai/ha): 20%
pest or weed control at 125 g/ha ([21]; 125 g ai/ha): 0%
pest or weed control at 500 g/ha ([21]; 500 g ai/ha): 30%
pest or weed control at 125 g/ha [5]: 80%
pest or weed control at 500 g/ha [5]: 90%
pest or weed control at 125 g/ha [6]: 0%
pest or weed control at 500 g/ha [6]: 30%
plant injury at 125 g/ha [7]: 0%
plant injury at 500 g/ha [7]: 50%
Corn plant response rating (crop injury, 0 = no effect, 100 = complete kill) at 125 g/ha (corn (Zea mays)): 0%
Corn plant response rating (crop injury, 0 = no effect, 100 = complete kill) at 500 g/ha (corn (Zea mays)): 40%
pest or weed control at 125 g/ha ([22]; 125 g ai/ha): 20%
pest or weed control at 500 g/ha ([22]; 500 g ai/ha): 50%
pest or weed control at 125 g/ha ([23]; 125 g ai/ha): 40%
pest or weed control at 500 g/ha ([23]; 500 g ai/ha): 60%
Plant response rating (rice (Oryza sativa) [12]; 125 g ai/ha): 0
Plant response rating (rice (Oryza sativa) [12]; 250 g ai/ha): 0
Plant response rating (rice (Oryza sativa) [12]; 500 g ai/ha): 0
Plant response rating (rice (Oryza sativa) [12]; 1000 g ai/ha): 0
Plant response rating ([13]; 125 g ai/ha): 0
Plant response rating ([13]; 250 g ai/ha): 0
Plant response rating ([13]; 500 g ai/ha): 0
Plant response rating ([13]; 1000 g ai/ha): 0
Plant response rating ([14]; 125 g ai/ha): 30
Plant response rating ([14]; 250 g ai/ha): 80
Plant response rating ([14]; 500 g ai/ha): 95
Plant response rating ([14]; 1000 g ai/ha): 100
Plant response rating ([15]; 125 g ai/ha): 10
Plant response rating ([15]; 250 g ai/ha): 20
Plant response rating ([15]; 500 g ai/ha): 50
Plant response rating ([15]; 1000 g ai/ha): 70
